Results: US6291540A, “Non-toxic initiators and their use for preparing stable and non-toxic polymers” (Rhodia Chimie, priority 1997, dated 2001)

Columns and labels:
[1] = LLNA sensitization test; format: in vivo; conditions: cytotoxicity can also be detected
Description: (§1) The tests carried out to measure the toxicity of the initiators are the Ames test and the LLNA sensitization test. The Ames test makes it possible to measure the mutagenic power of the initiator and the LLNA sensitization test makes it possible to detect the sensitizing power of the initiator. The cytotoxicity of the initiators can also be detected in this latter test (see examples).
The following toxicology tests were carried out:
LLNA sensitization test: this test makes it possible to detect the sensitizing power of the product. The cytotoxicity of the products can also be detected in the course of the test.
Table I below indicates the results obtained for the various photoinitiators prepared above.

[2] = Ames test (mutagenic power); format: cell-based
Description: as §1, with “examples). The following toxicology tests were carried out: Ames test: this Ames test makes it possible to measure the mutagenic power of the product Table I below indicates the results obtained for the various photoinitiators prepared above.” for “examples).”

[3] = Reactivity under UV irradiation of the photoinitiator; conditions: compared with the other toxic photo-initiators
Excerpt: The crosslinkable compositions comprise the non-toxic initiator prepared in Example 4.

| Compound | LLNA sensit. [1] | Ames [2] | reactivity under UV irradiation [3] |
| --- | --- | --- | --- |
| Cc1ccc([I+]c2ccc(C)cc2)cc1 [Example 1, ditolyliodonium chloride] | cytotoxic | cytotoxic |  |
| Cc1ccc([I+]c2ccc(C)cc2)cc1 [Example 2] | positive | positive |  |
| Cc1ccc([I+]c2ccc(C(C)C)cc2)cc1 [Example 3, cumyltolyliodonium chloride] | negative | negative |  |
| Cc1ccc([I+]c2ccc(C(C)C)cc2)cc1 [Example 4] |  |  | comparable |
| CCOc1ccc([I+]c2ccc(C)cc2)cc1 [Example 8] | positive | positive and cytotoxic |  |
| Cc1ccc([I+]c2ccc(Oc3ccccc3)cc2)cc1 [Example 9] | negative | cytotoxic |  |
| CC(C)c1ccc([I+]c2ccc(C(C)C)cc2)cc1 [Example 10] | positive | negative |  |
| COc1ccc([I+]c2ccc(OC)cc2)cc1 [Example 11] | cytotoxic | cytotoxic |  |
